The structures appear in SMILES notation.

One assay deals with T1, KIT(JMminus) (Homo sapiens, UniProt P10721).
T1 construct: KIT(JMminus); made in house
T1 sequence (P10721 589-937 limits assumed): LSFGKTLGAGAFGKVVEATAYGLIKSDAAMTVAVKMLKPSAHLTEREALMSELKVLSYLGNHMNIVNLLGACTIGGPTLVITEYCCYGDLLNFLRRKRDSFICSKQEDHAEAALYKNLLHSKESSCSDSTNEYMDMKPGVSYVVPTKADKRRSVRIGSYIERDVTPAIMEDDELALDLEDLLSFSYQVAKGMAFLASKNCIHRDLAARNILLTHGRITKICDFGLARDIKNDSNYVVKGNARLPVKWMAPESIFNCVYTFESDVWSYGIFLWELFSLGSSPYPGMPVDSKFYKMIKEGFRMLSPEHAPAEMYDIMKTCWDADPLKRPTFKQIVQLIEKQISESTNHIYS
In words: Binding constant (Kd) measurement, phage-displayed kinase competition binding assay: KIT(JMminus). An excerpt: (§1) The term “ND” represents non-determined values.
Turning to `Cc1ccc(-c2nc(C(=O)Nc3ccc(NC(=O)Nc4cc(C(C)(C)C)on4)cc3)cs2)cc1` [Compound N178], the Kd was less than 100 nM. On the same count and under the same terms, for `COc1cc(OC)nc(Nc2cccc(C(=O)Nc3ccc(NC(=O)Nc4cc(C(C)(C)C)on4)cc3)c2)n1` [Compound N49] the value was less than 100 nM. With `CCOC(=O)c1cccc(C(=O)Nc2ccc(NC(=O)Nc3cc(C(C)(C)C)on3)cc2)n1` [Compound N164], the Kd is less than 100 nM. As for `CC(C)(C)c1cc(NC(=O)Nc2ccc(NC(=O)c3cscn3)cc2)no1` [Compound N57], the Kd was less than 100 nM. For `CC(C)(C)c1cc(NC(=O)Nc2ccc(NC(=O)c3cccc[n+]3[O-])cc2)no1` [Compound N81], the Kd was less than 100 nM. For `CC(C)(C)c1cc(NC(=O)Nc2ccc(NC(=O)CNCC(=O)Nc3ccccc3)cc2)no1` [Compound N72], the Kd is less than 100 nM. On the same count and under the same terms, for `Cc1cc(NC(=O)[C@](C)(O)CSc2ccc(F)cc2)ccc1NC(=O)Nc1cc(C(C)(C)C)on1` [Compound N170] the value was less than 100 nM; for `COc1cc(NC(=O)c2cn3nc(Cl)ccc3n2)ccc1NC(=O)Nc1cc(C(C)(C)C)on1` [Compound N171], less than 100 nM. `CC(C)(C)c1cc(NC(=O)Nc2ccc(NC(=O)c3nn(-c4cccc(C(F)(F)F)c4)c(=O)cc3O)cc2)no1` [Compound N185] yielded a dissociation constant (Kd) of less than 100 nM.

As for `CC(=O)c1c[nH]c(C(=O)Cc2ccc(NC(=O)Nc3cc(C(C)(C)C)on3)cc2)c1` [Compound N43], the equilibrium dissociation constant (Kd) was less than 100 nM. `CC(C)(C)c1cc(NC(=O)Nc2ccc(NC(=O)c3ccc(Oc4ccnc(C(=O)O)c4)cc3)cc2)no1` [Compound N166] came in with a dissociation constant (Kd) of less than 100 nM. Still for that read-out and setting: for `CN(C)c1ccc(C(=O)Nc2ccc(NC(=O)Nc3cc(C(C)(C)C)on3)cc2)cn1` [Compound N159] the value was less than 100 nM. On the same count and under the same terms, next, `COc1cc(OC)nc(Sc2ccccc2C(=O)Nc2ccc(NC(=O)Nc3cc(C(C)(C)C)on3)cc2)n1` [Compound N47]: less than 100 nM. With `CC(C)(C)c1cc(NC(=O)Nc2ccc3c(c2)OCO3)no1` [Compound A56], the Kd was in the range of 100 to 1000 nM. On the same count and under the same terms, next, `CC(C)(C)c1cc(NC(=O)Nc2ccc(NC(=O)c3nocc3C(C)(C)C)cc2)no1` [Compound N82]: less than 100 nM; `CC(C)(C)c1cc(NC(=O)Nc2ccc(NC(=O)Cc3noc4ccccc34)cc2)no1` [Compound N80]: less than 100 nM; `CC(C)(C)c1cc(NC(=O)Nc2ccc(NC(=O)c3cc4cc(F)cc(S(C)(=O)=O)c4[nH]3)cc2)no1` [Compound N58]: 100 to 1000 nM. The molecule `Cc1nc(-c2ccccc2)sc1C(=O)Nc1ccc(NC(=O)Nc2cc(C(C)(C)C)on2)cc1` [Compound N181] displayed a Kd of less than 100 nM.

Molecule `COc1cc(OC)nc(C2CCCCC2C(=O)Nc2ccc(NC(=O)Nc3cc(C(C)(C)C)on3)cc2)n1` (centres unmarked) [Compound N129] returned a Kd of less than 100 nM. Molecule `Cn1nc(C(F)(F)F)c(C(=O)Nc2ccc(NC(=O)Nc3cc(C(C)(C)C)on3)cc2)c1Cl` [Compound N68] had a Kd of less than 100 nM.

On to `CC(C)(C)c1cc(NC(=O)Nc2ccc(NC(=O)Cc3sc(-c4ccc(Cl)cc4)nc3-c3ccccc3)cc2)no1` [Compound N66], for which the Kd was less than 100 nM. Same read-out and setting: next, `COc1cc(OC)nc(Oc2ccccc2C(=O)Nc2ccc(NC(=O)Nc3cc(C(C)(C)C)on3)cc2)n1` [Compound N70]: 100 to 1000 nM; `CC(C)(C)c1cc(NC(=O)Nc2ccc(NC(=O)c3sccc3OCc3cccc(C(F)(F)F)c3)cc2)no1` [Compound N183]: less than 100 nM. The same measure, in the same setting: next, `CC(C)(C)c1cc(NC(=O)Nc2ccc(NC(=O)c3cn4c(n3)sc3ccccc34)cc2)no1` [Compound N73]: less than 100 nM; `CC(C)(C)c1cc(NC(=O)Nc2ccc(NC(=O)c3cc(-c4ccc(O)cc4)cs3)cc2)no1` [Compound N77]: less than 100 nM; `CC(C)(C)c1cc(NC(=O)Nc2ccc(Nc3cc(N)nc(N)n3)cc2)no1` [Compound O7]: less than 100 nM. For `CC(C)(C)c1cc(NC(=O)Nc2ccc(NC(=O)c3cc4cccc5c4n(c3=O)CC5)cc2)no1` [Compound N60], the Kd is less than 100 nM. Molecule `Cc1nc(-c2ccc(Cl)cc2)sc1C(=O)Nc1ccc(NC(=O)Nc2cc(C(C)(C)C)on2)cc1` [Compound N184] yielded a Kd of less than 100 nM. `CC(C)c1nnsc1C(=O)Nc1ccc(NC(=O)Nc2cc(C(C)(C)C)on2)cc1` [Compound N182] returned a Kd of 100 to 1000 nM.

Molecule `COc1cc(OC)nc(N(C)c2cccc(C(=O)Nc3ccc(NC(=O)Nc4ccon4)cc3)c2)n1` [Compound N53] gave a Kd of less than 100 nM.

A further assay deals with T2, KIT(DKIN) (Homo sapiens, UniProt P10721).
T2 construct: KIT(DKIN); made in house
T2 sequence (P10721 589-937 limits assumed): as above
In words: Binding constant (Kd) measurement, phage-displayed kinase competition binding assay: KIT(DKIN).
Description: as §1
Consider `CC(C)(C)c1cc(NC(=O)Nc2ccc(C(=O)Nc3ccccc3)cc2)no1` [Compound N90], for which the Kd was in the range of 100 to 1000 nM. Molecule `CC(C)(C)c1cc(NC(=O)Nc2ccc(NC(=O)c3cccnc3)cc2)no1` [Compound N1] displayed an equilibrium dissociation constant (Kd) of 100 to 1000 nM. The same measure, in the same setting: for `CC(C)(C)c1cc(NC(=O)Nc2ccc(NC(=O)c3ncccc3C(N)=O)cc2)no1` [Compound N6] the value was 1000 to 10000 nM; for `CC(C)(C)c1cc(NC(=O)Nc2ccc(NC(=O)C3CCNCC3)cc2)no1` [Compound N150], 1000 to 10000 nM; for `CC(C)(C)c1cc(NC(=O)Nc2ccc(OCc3c(Cl)cccc3Cl)cc2)no1` [Compound G19], 100 to 1000 nM. Same read-out and setting: for `Cc1ccncc1C(=O)Nc1ccc(NC(=O)Nc2cc(C(C)(C)C)on2)cc1` [Compound N104] the value was 100 to 1000 nM; for `CC(C)(C)c1cc(NC(=O)Nc2ccc(NC(=O)C3CNCCN3)cc2)no1` (centres unmarked) [Compound N152], greater than 10000 nM. On the same count and under the same terms, next, `CC(C)(C)c1cc(NC(=O)Nc2ccc(NS(=O)(=O)c3ccccc3)cc2)no1` [Compound V1]: 1000 to 10000 nM. Take `COC(=O)c1ccc(C(=O)Nc2ccc(NC(=O)Nc3cc(C(C)(C)C)on3)cc2)nc1` [Compound N113]: the Kd was less than 100 nM. Turning to `CC(C)(C)c1cc(NC(=O)Nc2ccc(OCc3ccc4nonc4c3)cc2)no1` [Compound G55], the Kd lay within 100 to 1000 nM.

As for `CC(C)(C)c1cc(NC(=O)Nc2ccc(NC(=O)C(N)Cc3ccccc3F)cc2)no1` (centres unmarked) [Compound N42], the Kd lay in the range of 1000 to 10000 nM. Regarding `CC(C)(C)c1cc(NC(=O)Nc2ccc(OCCN3CCCCC3)cc2)no1` [Compound G50], the Kd is greater than 10000 nM. With `CC(C)(C)c1cc(NC(=O)Nc2ccc(OCCc3ccccc3F)cc2)no1` [Compound G25], the Kd was in the range of 100 to 1000 nM. Same read-out and setting: for `CC(C)(C)c1cc(NC(=O)Nc2ccc(NC(=O)c3cnc4ccccc4n3)cc2)no1` [Compound N149] the value was 1000 to 10000 nM; for `Cc1nnsc1C(=O)Nc1ccc(NC(=O)Nc2cc(C(C)(C)C)on2)cc1` [Compound N18], 1000 to 10000 nM; for `Cn1cc(C(=O)Nc2ccc(NC(=O)Nc3cc(C(C)(C)C)on3)cc2)c(C(F)(F)F)n1` [Compound N20], 100 to 1000 nM. Still for that read-out and setting: next, `Cc1nc(C(=O)Nc2ccc(NC(=O)Nc3cc(C(C)(C)C)on3)cc2)nn1-c1cc(Cl)cc(Cl)c1` [Compound N15]: greater than 10000 nM. Same read-out and setting: for `CC(C)(C)c1cc(NC(=O)Nc2ccc(NC(=O)c3cccc4nsnc34)cc2)no1` [Compound N21] the value was less than 100 nM; for `CC(C)(C)c1cc(NC(=O)Nc2ccc(OCCc3ccccn3)cc2)no1` [Compound G27], 100 to 1000 nM; for `CSc1ccc(NC(=O)Nc2cc(C(C)(C)C)no2)cc1` [Compound A39], 100 to 1000 nM. Molecule `CC(C)(C)c1cc(NC(=O)Nc2ccc(NC(=O)c3ccccc3)cc2)no1` [Compound N34] yielded a Kd of 100 to 1000 nM. `CC(C)(C)c1cc(NC(=O)Nc2ccc(OCc3ccc(Cl)cc3)cc2)no1` [Compound G34] registered a Kd of less than 100 nM.

The molecule `COc1ccc(NC(=O)Nc2cc(C(C)(C)C)no2)cc1` [Compound A30] came in with a Kd of 100 to 1000 nM. For the molecule `CC(C)(C)c1cc(NC(=O)Nc2ccc(NC(=O)c3cnnc4ccccc34)cc2)no1` [Compound N147], the Kd lay within 100 to 1000 nM.

Turning to `CC(C)(CO)c1cc(NC(=O)Nc2ccc(OCc3ccccc3)cc2)on1` [Compound G2], the Kd fell in the range of 100 to 1000 nM. In the case of `CC(C)(C)c1cc(NC(=O)Nc2ccc(OCc3ccccc3-c3ccccc3)cc2)no1` [Compound G8], the Kd was 1000 to 10000 nM. Same read-out and setting: next, `CC(C)(C)c1cc(NC(=O)Nc2ccc(NC(=O)Cc3ccc(-c4ccccc4)cc3)cc2)no1` [Compound N38]: 100 to 1000 nM; `CC(C)(C)c1cc(NC(=O)Nc2ccc(-c3nc(-c4ccc(Cl)cc4)no3)cc2)no1` [Compound P7]: 100 to 1000 nM; `CC(C)(C)c1cc(NC(=O)Nc2ccc(NC(=O)c3cn4cc(Cl)ccc4n3)cc2)no1` [Compound N3]: less than 100 nM. In turn, `CSc1ncc(Br)c(C(=O)Nc2ccc(NC(=O)Nc3cc(C(C)(C)C)on3)cc2)n1` [Compound N114] returned a Kd of 100 to 1000 nM. Still for that read-out and setting: next, `CC(C)(C)c1cc(NC(=O)Nc2ccc(NC(=O)c3ccnc4ccccc34)cc2)no1` [Compound N141]: 100 to 1000 nM; `CC(C)(C)c1cc(NC(=O)Nc2ccc(NC(=O)c3cc4cc(Br)ccc4s3)cc2)no1` [Compound N17]: 100 to 1000 nM. Same read-out and setting: for `COc1nc(C)cc(C)c1C(=O)Nc1ccc(NC(=O)Nc2cc(C(C)(C)C)on2)cc1` [Compound N22] the value was 1000 to 10000 nM; for `COc1ccc(N(C)C(=O)Nc2cc(C(C)(C)C)on2)cc1` [Compound J10], 100 to 1000 nM; for `CC(C)(C)c1cc(NC(=O)Nc2ccc(NC(=O)c3csnn3)cc2)no1` [Compound N14], 100 to 1000 nM. In the case of `C=CCOc1ccc(NC(=O)Nc2cc(C(C)(C)C)no2)cc1` [Compound G32], the Kd is less than 100 nM. The same measure, in the same setting: for `CC(C)(C)c1cc(NC(=O)Nc2ccc(C(=O)NCCO)cc2)no1` [Compound N87] the value was 100 to 1000 nM. Still for that read-out and setting: for `CC(C)(C)c1cc(NC(=O)Nc2ccc(NC(=O)c3cccc(O)n3)cc2)no1` [Compound N131] the value was less than 100 nM; for `CC(C)(C)c1cc(NC(=O)Nc2ccc(C(=O)Nc3cccc(C(F)(F)F)c3)cc2)no1` [Compound N154], 1000 to 10000 nM. The same measure, in the same setting: for `CC(C)(C)c1cc(NC(=O)Nc2ccc(C(=O)NCc3ccc4c(c3)OCO4)cc2)no1` [Compound N97] the value was 100 to 1000 nM; for `CC(C)(C)c1cc(NC(=O)Nc2ccc(NC(=O)Cc3ccccc3)cc2)no1` [Compound N35], 100 to 1000 nM.

Values taken from patent US20050192314A1, “Urea derivatives as C-kit modulators” (Ambit Biosciences Corporation, priority 2003, published 2005).
